Test results published in patent US20230414732A1, “COMPOSITIONS OF EMBEDDED EPITOPE RANDOM PEPTIDES (EERP) FOR TREATMENT OF IMMUNE-MEDIATED CONDITIONS, AND METHODS OF USE” (PALENA THERAPEUTICS, INC., priority 2020, published 2023).

Tests used:
[1] = system: LPS-stimulated human monocytic cell line THP-1; test: Inhibition of pro-inflammatory cytokine secretion by LPS-stimulated THP-1 cells (ELISA); format: cell-based; conditions: 1.5 hr pre-incubation, LPS 1 μg/mL 24 hr
Procedure: Cell-based assays. Human monocytic cell line THP-1 (ATCC, Manassas, VA) was cultured in RPMI media supplemented with 10% fetal bovine serum (FBS) and antibiotics penicillin/streptomycin in a 37° C. 5% CO 2 incubator. Cells were plated at 0.25×10^6 cells/well in a 24-well cell culture plate and pre-incubated for 1.5 hr with Glatopa, PT-001 or PT-002 at the final concentration 0.1 μg/mL or 10 μg/mL each, followed by addition of lipopolysaccharide (LPS) at the final concentration of 1 μg/mL and incubation for 24 hr in a 37° C. 5% CO2 incubator. Plates were centrifuged and supernatants (100 μL) were tested for levels of pro-inflammatory cytokines IL-1β, IL-6 and TNF-α using commercial ELISA kits (R&D System for IL-1β, BioLegend for IL-6 and TNF-α). […] Percent inhibition is calculated as 100-(cytokine concentration in presence of inhibitor/cytokine concentration without inhibitor*100).

[2] = system: MOG-induced EAE in C57B1/6 female mice; test: Prophylactic treatment of MOG35-55-induced EAE, a mouse model of MS; format: in vivo; conditions: for Incidence of EAE: 500 μg single dose co-administered with MOG 35-55 in CFA, scored Day 7 to Day 28
From the text: FIG. 2 is a graph showing prophylactic treatment of MOG-induced EAE in mice (an animal model for multiple sclerosis (MS)) using an EERP according to the present invention. EAE was induced in C57B1/6 female mice at 10 weeks of age by MOG35-55 (Control; depicted as diamonds) and treated prophylactically by co-administration of Glatopa (depicted as triangles), PT-001 (YFAK random copolymer, depicted as open squares), or PT-002 (EERP consisting of linear random polypeptide YFAK with the peptide AYKAAA embedded in it; depicted as cross) at 500 μg/dose each. Mice (12 per treatment group) were monitored for signs of disease for 28 days post immunization. Numbers on the ordinate represent mean clinical score of clinical symptoms monitored for the days shown on the abscissa.
FIG. 3 is a graph showing prophylactic treatment of MOG-induced EAE in mice using two different doses of an EERP according to the present invention. […] Mice (10 per treatment group) were monitored for signs of disease for 28 days post immunization. Numbers on the ordinate represent mean clinical score of clinical symptoms monitored for the days shown on the abscissa.
The EERP of the invention is further tested in vivo in a prophylactic model of MS, EAE, which is induced in female mice of C57B1/6J strain by MOG 35-55 encephalitogenic peptide co-administered with the EERP in Complete Freund's Adjuvant. […] Disease severity is based on clinical observations and is assessed on the scale from 0 to 5. […]
Prophylactic treatment of EAE, a mouse model of MS. […] Mice (12 per treatment group) were monitored daily in a blind fashion starting from Day 7 for signs of disease for 28 days post immunization. […]
Prophylactic treatment of EAE, a mouse model of MS, by 2 different doses of EERP. […] Mice (10 per treatment group) were monitored daily in a blind fashion starting from Day 7 for signs of disease for 28 days post immunization. […]

relapsing forms of MS = conditions: cited from earlier work
[3] = system: experimental allergic encephalomyelitis (EAE); conditions: mouse model for multiple sclerosis; cited from earlier work

Compound	Percent inhibition (%) IL-1b ([1]; 0.1 μg/mL compound) [%]	Percent inhibition (%) IL-6 ([1]; 0.1 μg/mL compound) [%]	Percent inhibition (%) TNF-a ([1]; 0.1 μg/mL compound) [%]	Percent inhibition (%) IL-1b ([1]; 10 μg/mL compound) [%]	Percent inhibition (%) IL-6 ([1]; 10 μg/mL compound) [%]	Percent inhibition (%) TNF-a ([1]; 10 μg/mL compound) [%]	Incidence of EAE [2] [%]	Signs of disease (clinical score) ([2]; Example 2: 500 μg/dose, single dose in immunization emulsion, subcutaneous, 28 days post immunization)	Reduction in relapses (relapsing forms of MS)	Suppression of EAE [3]
C[N+]1(C)CCC(OC(=O)C(O)(c2ccccc2)C2CCCC2)C1 (centres unmarked) [PT-001]	21	−8	−5	77	84	34	0	did not exhibit any signs of disease		
glatiramer acetate [Glatopa]	22	−10	−162	42	−21	−37	67			
poly (Y, E, A, K) [Cop 1]									about 30%	capable of suppressing experimental allergic encephalomyelitis
